Experimental findings from patent US20130078317A1, “ZINC-CONTAINING COMPOSITIONS FOR THE TREATMENT OF DISEASES, ILLNESSES AND SYNDROMES ASSOCIATED WITH EXPOSURE TO PORE FORMING TOXINS” (priority 2009, published 2013) are described below.

The target of assay [1] is T1, purified hemolysin from Carybdea alata (Alatina alata, UniProt Q9GNN8).
T1 sequence (Q9GNN8 31-463 limits assumed): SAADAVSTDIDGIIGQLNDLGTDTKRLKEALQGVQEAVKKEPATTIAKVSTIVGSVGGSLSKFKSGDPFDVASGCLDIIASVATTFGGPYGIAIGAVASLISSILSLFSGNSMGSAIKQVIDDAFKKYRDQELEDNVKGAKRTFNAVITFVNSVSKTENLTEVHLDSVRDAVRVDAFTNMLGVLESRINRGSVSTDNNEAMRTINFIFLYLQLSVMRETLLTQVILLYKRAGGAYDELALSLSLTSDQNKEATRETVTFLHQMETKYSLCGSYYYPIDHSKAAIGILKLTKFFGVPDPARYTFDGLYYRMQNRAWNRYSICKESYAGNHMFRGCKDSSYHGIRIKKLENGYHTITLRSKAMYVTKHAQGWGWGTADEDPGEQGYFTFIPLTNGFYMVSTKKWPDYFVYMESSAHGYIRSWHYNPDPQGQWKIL
As to the kind of experiment: Potassium efflux induced by purified hemolysin from Carybdea alata in isolated red blood cells. It is filed as cell-based. Particulars: 2% RBC; FIG. 4 legend.

A further assay has as its target T2, Carybdea alata hemolysin (Alatina alata, UniProt Q9GNN8).
T2 sequence (Q9GNN8 31-463 limits assumed): T1 sequence (Q9GNN8 31-463 limits assumed)
As to the kind of experiment: Hemolysis induced by Carybdea alata hemolysin in 2% RBC. Particulars: 5 mM zinc gluconate. It counts as cell-based.

As for zinc gluconate, the “potassium efflux induced by purified hemolysin from Carybdea alata” value in assay [1] was “inhibits”. The “hemolysis induced by Carybdea alata hemolysin” value on Carybdea alata hemolysin is listed as “substantially inhibited”.
